Source: ChEMBL document CHEMBL4610038, “The synthesis of trifluoromethylated N-nitroaryl-2-amino-1,3-dichloropropane derivatives and their evaluation as potential anti-cancer agents” (Bioorg Med Chem Lett, 2020)

Tests used:
MCF7 [1] = experiment: Cytotoxicity against human MCF7 cells assessed as cell viability at 100 uM relative to control; type: functional; details: read-out: Activity
SK-BR-3 [2] = experiment: Cytotoxicity against human SKBR3 cells assessed as reduction in cell viability; type: functional, cell-based
CNE [3] = experiment: Cytotoxicity against human CNE1 cells assessed as reduction in cell viability; type: functional, cell-based
ASPC1 [4] = experiment: Cytotoxicity against human AsPC1 cells assessed as cell viability at 100 uM relative to control; type: functional; details: read-out: Activity
MDA-MB-468 [5] = experiment: Cytotoxicity against human MDA-MB-468 cells assessed as reduction in cell viability; type: functional, cell-based
NCI-H1299 [6] = experiment: Cytotoxicity against human H1299 cells assessed as reduction in cell viability; type: functional, cell-based
SW1990 [7] = experiment: Cytotoxicity against human SW1990 cells assessed as reduction in cell viability; type: functional, cell-based
NCI-H1299 [8] = experiment: Cytotoxicity against human H1299 cells assessed as cell viability at 100 uM relative to control; type: functional; details: read-out: Activity
SW48 [9] = experiment: Cytotoxicity against human SW48 cells assessed as cell viability at 100 uM relative to control; type: functional; details: read-out: Activity
[10] = Cytotoxicity against human HK1 cells assessed as cell viability at 100 uM relative to control; type: functional; details: HK-1, read-out: Activity
SW48 [11] = experiment: Cytotoxicity against human SW48 cells assessed as reduction in cell viability; type: functional, cell-based
T47D [12] = experiment: Cytotoxicity against human T47D cells assessed as reduction in cell viability; type: functional, cell-based
MRC5 = experiment: Cytotoxicity against human MRC5 cells assessed as reduction in cell viability; type: cell-based
Caco-2 [13] = experiment: Cytotoxicity against human Caco2 cells assessed as cell viability at 100 uM relative to control; type: functional; details: read-out: Activity
SH-SY5Y [14] = experiment: Cytotoxicity against human SH-SY5Y cells assessed as cell viability at 100 uM relative to control; type: functional; details: read-out: Activity
A549 [15] = experiment: Cytotoxicity against human A549 cells assessed as cell viability at 100 uM relative to control; type: functional; details: read-out: Activity
SK-BR-3 [16] = experiment: Cytotoxicity against human SKBR3 cells assessed as cell viability at 100 uM relative to control; type: functional; details: read-out: Activity
HCT-116 [17] = experiment: Cytotoxicity against human HCT116 cells assessed as cell viability at 100 uM relative to control; type: functional; details: read-out: Activity
SUNE1 [18] = experiment: Cytotoxicity against human SUNE1 cells assessed as reduction in cell viability; type: functional, cell-based
BXPC-3 [19] = experiment: Cytotoxicity against human BxPC3 cells assessed as reduction in cell viability; type: functional, cell-based
HT-29 [20] = experiment: Cytotoxicity against human HT-29 cells assessed as reduction in cell viability; type: functional, cell-based
BXPC-3 [21] = experiment: Cytotoxicity against human BxPC3 cells assessed as cell viability at 100 uM relative to control; type: functional; details: read-out: Activity
Caco-2 [22] = experiment: Cytotoxicity against human Caco2 cells assessed as reduction in cell viability; type: functional, cell-based
MCF-10A = experiment: Cytotoxicity against human MCF10A cells assessed as reduction in cell viability; type: cell-based
A549 [23] = experiment: Cytotoxicity against human A549 cells assessed as reduction in cell viability; type: functional, cell-based
[24] = Cytotoxicity against human MRC5 cells assessed as cell viability at 100 uM relative to control; type: cell-based; details: read-out: Activity
MCF7 [25] = experiment: Cytotoxicity against human MCF7 cells assessed as reduction in cell viability; type: functional, cell-based
MDA-MB-468 [26] = experiment: Cytotoxicity against human MDA-MB-468 cells assessed as cell viability at 100 uM relative to control; type: functional; details: read-out: Activity
HT-29 [27] = experiment: Cytotoxicity against human HT-29 cells assessed as cell viability at 100 uM relative to control; type: functional; details: read-out: Activity
ASPC1 [28] = experiment: Cytotoxicity against human AsPC1 cells assessed as reduction in cell viability; type: functional, cell-based
HCT-116 [29] = experiment: Cytotoxicity against human HCT116 cells assessed as reduction in cell viability; type: functional, cell-based
SW1990 [30] = experiment: Cytotoxicity against human SW1990 cells assessed as cell viability at 100 uM relative to control; type: functional; details: read-out: Activity
CNE [31] = experiment: Cytotoxicity against human CNE1 cells assessed as cell viability at 100 uM relative to control; type: functional; details: read-out: Activity
SH-SY5Y [32] = experiment: Cytotoxicity against human SH-SY5Y cells assessed as reduction in cell viability; type: functional, cell-based
T47D [33] = experiment: Cytotoxicity against human T47D cells assessed as cell viability at 100 uM relative to control; type: functional; details: read-out: Activity
SUNE1 [34] = experiment: Cytotoxicity against human SUNE1 cells assessed as cell viability at 100 uM relative to control; type: functional; details: read-out: Activity
MDA-MB-231 [35] = experiment: Cytotoxicity against human MDA-MB-231 cells assessed as cell viability at 100 uM relative to control; type: functional; details: read-out: Activity
MDA-MB-231 [36] = experiment: Cytotoxicity against human MDA-MB-231 cells assessed as reduction in cell viability; type: functional, cell-based
[37] = Cytotoxicity against human HK1 cells assessed as reduction in cell viability; type: functional, cell-based; details: HK-1
[38] = Cytotoxicity against human MCF10A cells assessed as cell viability at 100 uM relative to control; type: cell-based, MCF-10A; details: read-out: Activity

Structure (SMILES)	viability at 100 µM (MCF7 [1]) [%]	IC50 (SK-BR-3 [2]) [µM]	IC50 (CNE [3]) [µM]	viability at 100 µM (ASPC1 [4]) [%]	IC50 (MDA-MB-468 [5]) [µM]	IC50 (NCI-H1299 [6]) [µM]	IC50 (SW1990 [7]) [µM]	viability at 100 µM (NCI-H1299 [8]) [%]	viability at 100 µM (SW48 [9]) [%]	viability at 100 µM [10] [%]	IC50 (SW48 [11]) [µM]	IC50 (T47D [12]) [µM]	IC50 (MRC5) [µM]	viability at 100 µM (Caco-2 [13]) [%]	viability at 100 µM (SH-SY5Y [14]) [%]	viability at 100 µM (A549 [15]) [%]	viability at 100 µM (SK-BR-3 [16]) [%]	viability at 100 µM (HCT-116 [17]) [%]	IC50 (SUNE1 [18]) [µM]	IC50 (BXPC-3 [19]) [µM]	other results
O=[N+]([O-])c1ccc(NC(CO)CO)cc1	65.6	> 100	> 100	96.4	> 100	> 100	> 100	92.7	95.3	99.6	> 100	> 100	60.2	101	99.9	96.7	93.1	89.7	> 100	> 100	IC50 (HT-29 [20]): > 100 µM; viability at 100 µM (BXPC-3 [21]): 100%; IC50 (Caco-2 [22]): > 100 µM; IC50 (MCF-10A): > 100 µM; IC50 (A549 [23]): > 100 µM; viability at 100 µM [24]: 32.2%; IC50 (MCF7 [25]): > 100 µM; viability at 100 µM (MDA-MB-468 [26]): 102%; viability at 100 µM (HT-29 [27]): 96.3%; IC50 (ASPC1 [28]): > 100 µM; IC50 (HCT-116 [29]): > 100 µM; viability at 100 µM (SW1990 [30]): 87.5%; viability at 100 µM (CNE [31]): 104%; IC50 (SH-SY5Y [32]): > 100 µM; viability at 100 µM (T47D [33]): 73.6%; viability at 100 µM (SUNE1 [34]): 109%; viability at 100 µM (MDA-MB-231 [35]): 87.7%; IC50 (MDA-MB-231 [36]): > 100 µM; IC50 [37]: > 100 µM; viability at 100 µM [38]: 103%
O=[N+]([O-])c1ccccc1NC(CO)CO	66.6	> 100	> 100	101	> 100	> 100	> 100	96.7	102	90.1	> 100	> 100	> 100	95.1	89.7	74.9	101	76.9	> 100	> 100	IC50 (HT-29 [20]): > 100 µM; viability at 100 µM (BXPC-3 [21]): 102%; IC50 (Caco-2 [22]): > 100 µM; IC50 (MCF-10A): > 100 µM; IC50 (A549 [23]): > 100 µM; viability at 100 µM [24]: 101%; IC50 (MCF7 [25]): > 100 µM; viability at 100 µM (MDA-MB-468 [26]): 104%; viability at 100 µM (HT-29 [27]): 86.1%; IC50 (ASPC1 [28]): > 100 µM; IC50 (HCT-116 [29]): > 100 µM; viability at 100 µM (SW1990 [30]): 91.9%; viability at 100 µM (CNE [31]): 102%; IC50 (SH-SY5Y [32]): > 100 µM; viability at 100 µM (T47D [33]): 76.2%; viability at 100 µM (SUNE1 [34]): 99.3%; viability at 100 µM (MDA-MB-231 [35]): 91.8%; IC50 (MDA-MB-231 [36]): > 100 µM; IC50 [37]: > 100 µM; viability at 100 µM [38]: 100%
O=[N+]([O-])c1ccccc1NC(CCl)CCl	37.7	> 100	> 100	75.2	> 100	> 100	> 100	109	62.6	101	> 100	> 100	> 100	104	60.8	82.9	79.9	64.9	> 100	> 100	IC50 (HT-29 [20]): > 100 µM; viability at 100 µM (BXPC-3 [21]): 105%; IC50 (Caco-2 [22]): > 100 µM; IC50 (MCF-10A): > 100 µM; IC50 (A549 [23]): > 100 µM; viability at 100 µM [24]: 54.8%; IC50 (MCF7 [25]): 50.9 µM; viability at 100 µM (MDA-MB-468 [26]): 63.6%; viability at 100 µM (HT-29 [27]): 65.3%; IC50 (ASPC1 [28]): > 100 µM; IC50 (HCT-116 [29]): > 100 µM; viability at 100 µM (SW1990 [30]): 64.4%; viability at 100 µM (CNE [31]): 72.5%; IC50 (SH-SY5Y [32]): > 100 µM; viability at 100 µM (T47D [33]): 69.8%; viability at 100 µM (SUNE1 [34]): 80.5%; viability at 100 µM (MDA-MB-231 [35]): 85.1%; IC50 (MDA-MB-231 [36]): > 100 µM; IC50 [37]: > 100 µM; viability at 100 µM [38]: 88.7%
